{"source": "patent US6875420B1", "about": "“Method of ultrasound imaging” (Amersham Health AS, priority 1991, dated 2005)", "key": {"[1]": {"details": "cited from earlier work; for DENSITY: gas density; for SOLUBILITY: in water, fluorocarbons estimated by extrapolation relative to perfluoro-n-pentane; for boiling point: standard pressure conditions"}, "[2]": {"test": "Persistence of microbubbles in water at 37° C. observed by ultrasound scan", "type": "physicochemical", "experimental": "The relationship between a calculated Q-value for a given gas and the persistence of microbubbles of that gas was studied to determine what Q-value would be a lower limit for utility as an ultrasound contrast agent. […] Five mL of a 20% sorbitol solution was taken up in a 10 mL syringe connected to a three way stopcock. A 10 mL syringe, containing 2 cubic centimeters of the subject gas (or low boiling liquid, as pertinent) was attached to the syringe containing the sorbitol solution. The sorbitol and gas or liquid are rapidly mixed 25-times to create a suspension of microbubbles or dispersed liquid and then rapidly added to the water. […] Ultrasound scans before, during and after the addition were made with a Hewlett-Packard Model Sonos 500 ultrasound scanner operating at 5 MHz. The time during which the microbubbles could be observed was recorded. […] The experimental Q-values were obtained by dividing the measured persistence of a given gas by the measured persistence for air."}, "[3]": {"test": "Physical properties of gases: density, solubility in water, diffusivity, molar volume, boiling point", "type": "physicochemical", "details": "(*) estimated from the known density of homologous fluorocarbons", "source_text": "Different methods for determining or estimating values for the individual parameters of density, diffusivity, and solubility may be needed depending on the chemical structure of the gas. Values for these parameters may or may not be available from known scientific literature sources such as the Gas Encyclopedia or the tabulations published by the American Chemical Society. Values for the density of most gases are readily available from sources such as the Handbook of Chemistry and Physics. […] Additionally, the solubility in water and molar volume of some gases has been measured with accuracy. In many cases however, calculations for the numerical values for molar volume and solubility may need to be calculated or estimated to provide the data used to determine the value of the Q coefficient for an individual gas by the method described above.\nTo determine the Q value for several gases, the solubility, molar volume and density of the individual gases are determined and the values are substituted into Equations (7) or (8) above.\nThis method for estimating the gas solubility of fluorocarbons uses extrapolation of the experimental data of Kabalnov AS, Makarov KN, and Scherbakova OV. […] For a homologous series of non-branched fluorocarbons, the gas solubility may be estimated by increasing or reducing this value by a factor of about 8.0 for each increase or reduction in the number of additional —CF2— groups present in the molecule.\nThe molar volume of a gas can be estimated by identifying the number and type of atoms that make up the molecule of gas in question. By determining the number and type of atoms present in the molecule and how the individual atoms are bound to each other, known values may be applied for the molecular volume of the individual atoms. By considering the contribution of each individual atom and its frequency of occurrence, one may calculate the total molar volume for a particular gas molecule."}, "[4]": {"details": "about 100 micron microbubbles, 20% sorbitol, added to water at 37° C., 5 MHz ultrasound"}}, "note": "Like-named read-outs stand apart in the source and are kept apart here.", "data": [{"compound": "[Ar]", "note": "[Argon]", "values": [{"measurement": "DENSITY", "setting": "[1]", "value": 1.78, "unit": "kg/m3"}]}, {"compound": "O=C=O", "note": "[Carbon Dioxide]", "values": [{"measurement": "DENSITY", "setting": "[1]", "value": 1.98, "unit": "kg/m3"}, {"measurement": "SOLUBILITY", "setting": "[1]", "value": 33000, "unit": "µmol/L"}]}, {"compound": "FC(F)(F)C(F)(F)C(F)(F)C(F)(F)F", "note": "[Decafluorobutane]", "values": [{"measurement": "DENSITY", "setting": "[1]", "value": 11.21, "unit": "kg/m3"}, {"measurement": "SOLUBILITY", "setting": "[1]", "value": 32, "unit": "µmol/L"}]}, {"compound": "FC(F)(F)C(F)(F)C(F)(F)C(F)(F)C(F)(F)F", "note": "[Dodecafluoropentane]", "values": [{"measurement": "PERSISTENCE of microbubbles", "setting": "[2]; [4]", "value": "> 5760", "unit": "min"}, {"measurement": "water solubility", "setting": "[1]", "value": "4.0×10^−6 moles per liter"}, {"measurement": "DENSITY", "setting": "[1]", "value": 12.86, "unit": "kg/m3"}, {"measurement": "boiling point", "setting": "[1]", "value": 29.5, "unit": "degrees Centigrade"}]}, {"compound": "CC", "note": "[Ethane]", "values": [{"measurement": "DENSITY", "setting": "[1]", "value": 1.05, "unit": "kg/m3"}]}, {"compound": "CCOCC", "note": "[Ethyl ether]", "values": [{"measurement": "PERSISTENCE of microbubbles", "setting": "[2]; [4]", "value": 0.1, "unit": "min"}, {"measurement": "DENSITY", "setting": "[1]", "value": 2.55, "unit": "kg/m3"}, {"measurement": "SOLUBILITY", "setting": "[1]", "value": "977,058 micromoles/liter"}]}, {"compound": "[He]", "note": "[Helium]", "values": [{"measurement": "PERSISTENCE of microbubbles", "setting": "[2]; [4]", "value": 2.0, "unit": "min"}, {"measurement": "DENSITY", "setting": "[1]", "value": 0.18, "unit": "kg/m3"}, {"measurement": "SOLUBILITY", "setting": "[1]", "value": 388, "unit": "µmol/L"}]}, {"compound": "FC(F)(F)C#CC(F)(F)F", "note": "[Hexafluoro-2-butyne]", "values": [{"measurement": "DENSITY", "setting": "[3]", "value": "9 (*) kg/m3"}]}, {"compound": "FC(F)=C(F)C(F)=C(F)F", "note": "[Hexafluorobuta-1,3-diene]", "values": [{"measurement": "DENSITY", "setting": "[3]", "value": "9 (*) kg/m3"}]}, {"compound": "FC(F)(F)C(F)(F)F", "note": "[Hexafluoroethane]", "values": [{"measurement": "DENSITY", "setting": "[1]", "value": 8.86, "unit": "kg/m3"}]}, {"compound": "[Kr]", "note": "[Krypton]", "values": [{"measurement": "DENSITY", "setting": "[1]", "value": 3.8, "unit": "kg/m3"}]}, {"compound": "[Ne]", "note": "[Neon]", "values": [{"measurement": "DENSITY", "setting": "[1]", "value": 0.90, "unit": "kg/m3"}, {"measurement": "SOLUBILITY", "setting": "[1]", "value": 434, "unit": "µmol/L"}]}, {"compound": "FC(=C(F)C(F)(F)F)C(F)(F)F", "note": "[Octafluoro-2-butene]", "values": [{"measurement": "DENSITY", "setting": "[3]", "value": "10 (*) kg/m3"}]}, {"compound": "FC1(F)C(F)(F)C(F)(F)C1(F)F", "note": "[Octafluorocyclobutane]", "values": [{"measurement": "DENSITY", "setting": "[1]", "value": 9.97, "unit": "kg/m3"}, {"measurement": "SOLUBILITY", "setting": "[1]", "value": 220, "unit": "µmol/L"}]}, {"compound": "FC(F)(F)C(F)(F)C(F)(F)F", "note": "[Octafluoropropane]", "values": [{"measurement": "DENSITY", "setting": "[1]", "value": 10.3, "unit": "kg/m3"}, {"measurement": "SOLUBILITY", "setting": "[1]", "value": 260, "unit": "µmol/L"}]}, {"compound": "CCCCC", "note": "[Pentane]", "values": [{"measurement": "PERSISTENCE of microbubbles", "setting": "[2]; [4]", "value": 20.6, "unit": "min"}, {"measurement": "SOLUBILITY", "setting": "[1]", "value": 1674, "unit": "µmol/L"}]}, {"compound": "FC(F)(F)C(F)(F)C(F)(F)C(F)(F)C(F)(F)C(F)(F)F", "note": "[Perfluorohexane, reference compound]", "values": [{"measurement": "boiling point", "setting": "[1]", "value": "59-60 degrees Centigrade"}]}, {"compound": "CCC", "note": "[Propane]", "values": [{"measurement": "PERSISTENCE of microbubbles", "setting": "[2]; [4]", "value": 3.2, "unit": "min"}, {"measurement": "DENSITY", "setting": "[1]", "value": 2.02, "unit": "kg/m3"}]}, {"compound": "FS(F)(F)(F)(F)F", "note": "[Sulfur Hexafluoride]", "values": [{"measurement": "DENSITY", "setting": "[1]", "value": 5.48, "unit": "kg/m3"}]}, {"compound": "[Xe]", "note": "[Xenon]", "values": [{"measurement": "DENSITY", "setting": "[1]", "value": 5.90, "unit": "kg/m3"}]}, {"compound": "CCCC", "note": "[n-Butane]", "values": [{"measurement": "PERSISTENCE of microbubbles", "setting": "[2]", "value": "1.5 min (2.6)"}, {"measurement": "DENSITY", "setting": "[1]", "value": 2.05, "unit": "kg/m3"}, {"measurement": "SOLUBILITY", "setting": "[1]", "value": 6696, "unit": "µmol/L"}]}, {"compound": "Hexafluoropropane", "values": [{"measurement": "DENSITY", "setting": "[1]", "value": 10.3, "unit": "kg/m3"}]}]}
